Molecular target: human vanin-1 (Homo sapiens (Human), UniProt O95497)
Experiment: Human Vanin-1 Enzyme Assay 1
Assay type: biochemical
Conditions: 25 pM human vanin-1, 50 uM pantetheine 7-amino-4-trifluoromethylcoumarin substrate
Protocol: Human Vanin-1Enzyme Assay 1.
The in vitro assay measures enzymatic cleavage of the fluorescently-labeled vanin substrate, pantetheine 7-amino-4-trifluoromethylcoumarin, by human vanin-1.
The vanin-1 protein was prepared in-house from a construct expressing the extracellular domain of human vanin-1 (GenBank ID NM_004666) preceded N-terminally by the honey bee melittin signal peptide, a GSG linker sequence, a His6× tag and a FLAG tag. The secreted, soluble enzyme was purified from the conditioned medium from a CHO cell line stably expressing the resulting protein. Enzyme purification was performed through sequential Ni NTA and size-exclusion chromatography steps.
Intermediate concentrations were prepared by diluting in DMSO in a four-fold series for a total of 11 data points.
To begin the assay 100 nL was transferred from the compound plate to the assay plate. Next, 15 μL of the vanin-1 working solution were transferred to the assay plate. The inhibitor and enzyme were incubated at room temperature for 30 minutes. The enzyme reaction was then initiated by the addition of 5 μL of 200 μM pantetheine 7-amino-4-trifluoromethylcoumarin prepared in assay buffer. […] The final concentration of DMSO was 0.5%.

Chain of human vanin-1 (O95497 22-491): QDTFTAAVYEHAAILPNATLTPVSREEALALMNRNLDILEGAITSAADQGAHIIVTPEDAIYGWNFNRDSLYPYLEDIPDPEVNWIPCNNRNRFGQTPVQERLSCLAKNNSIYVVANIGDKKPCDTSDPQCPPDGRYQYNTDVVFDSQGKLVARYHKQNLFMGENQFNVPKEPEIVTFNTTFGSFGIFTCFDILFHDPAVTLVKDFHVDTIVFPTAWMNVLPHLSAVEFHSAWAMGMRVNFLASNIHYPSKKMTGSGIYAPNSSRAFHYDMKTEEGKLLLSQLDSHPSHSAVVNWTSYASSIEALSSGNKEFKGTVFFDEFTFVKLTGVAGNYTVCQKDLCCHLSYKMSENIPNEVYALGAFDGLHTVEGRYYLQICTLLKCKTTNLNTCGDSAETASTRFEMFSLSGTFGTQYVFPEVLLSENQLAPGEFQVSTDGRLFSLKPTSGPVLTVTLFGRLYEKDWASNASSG

| SMILES | IC50 [nM] |
| --- | --- |
| CS(=O)(=O)C1CCCN(C(=O)c2cnc(NC3(c4cncnc4)CC3)nc2)C1 (single isomer, unassigned) [Example 199] | 1180 |
| CCOC1CCCN(C(=O)c2cnc(NC3(c4cncnc4)CC3)nc2)C1 (centres unmarked) [Example 104] | 2.45 |
| O=C(c1cnc(NCc2cccnc2)nc1)N1CCC2(CCOCC2)C1 [Example 1] | 1.31 |
| O=C(c1cnc(NC2(c3cnccn3)CCC2)nc1)N1CC2(CCOCC2)C1 [Example 138] | 0.043 |
| O=C(c1cnc(NCc2cccnc2)nc1)N1CC2CCC(CC2)C1 [Example 27] | 1370 |
| CC(C)[C@H]1C[C@@H](O)CN(C(=O)c2cnc(NC3(c4cncnc4)CC3)nc2)C1 [Example 40] | 26.9 |
| O=C(c1cnc(NCc2cccnc2)nc1)N1CCCC(O)C1 (centres unmarked) [Example 22] | 559 |
| O=C(c1cnc(NC2(c3cncnc3)CC2)nc1)N1CCC(C2(O)CCCC2)CC1 [Example 101] | 1360 |
| O=C(c1cnc(NCc2cncnc2)nc1)N1CCC2(CCOCC2)C1 [Example 185] | 7.71 |
| O=C(c1cnc(NC2(c3cncnc3)CC2)nc1)N1CCCC1C(F)(F)F (centres unmarked) [Example 73] | 829 |
| C[C@H]1CCCN1C(=O)c1cnc(NC2(c3cncnc3)CC2)nc1 [Example 47] | 29.6 |
| CCC1(CC)CCN(C(=O)c2cnc(NC3(c4cncnc4)CC3)nc2)C1 [Example 37] | 0.504 |
| O=C(c1cnc(NCc2cccnc2)nc1)N1CC2(CCOCC2)C1 [Example 2] | 1.33 |
| CCOC1CCN(C(=O)c2cnc(NCc3cccnc3)nc2)C1 (centres unmarked) [Example 10] | 75.9 |
| CO[C@@H]1[C@@H]2CC[C@H]1CN(C(=O)c1cnc(NCc3cccnc3)nc1)C2 [Example 12] | 94.1 |
| O=C(c1cnc(NC2(c3cncnc3)CC2)nc1)N1CCOCC1 [Example 109] | 249 |
| C[C@H](Nc1ncc(C(=O)N2CC[C@@H](N3CCOCC3)C2)cn1)c1cnccn1 [Example 120] | 84.1 |
| C[C@@H]1CN(C(=O)c2cnc(NC3(c4cncnc4)CC3)nc2)C[C@H](C)C1O (some centres unmarked) [Example 44] | 2270 |
| O=C(c1cnc(NC2(c3cncnc3)CC2)nc1)N1CCCC2(CCCC[C@H]2O)C1 (some centres unmarked) [Example 100] | 135 |
| O=C(c1cnc(NCc2cccnc2)nc1)N1C[C@@H]2[C@@H](CO)[C@@H]2C1 [Example 18] | 385 |
| CC(=O)N1CCN(C(=O)c2cnc(NCc3cccnc3)nc2)CC1 [Example 24] | 749 |

| SMILES | IC50 [nM] |
| --- | --- |
| C[C@H](Nc1ncc(C(=O)N2CCN3CCC[C@H]3C2)cn1)c1cnccn1 [Example 125] | 3.04 |
| O=C(c1cnc(NC2(c3cncnc3)CC2)nc1)N1CC2(CC(O)C2)C1 [Example 102] | 40.8 |
| O=C(Nc1ncc(C(=O)N2CCC3(CCOCC3)C2)cn1)c1cncnc1 [Example 205, N-[5-(8-oxa-2-azaspiro[4.5]dec-2-ylcarbonyl)pyrimidin-2-yl]pyrimidine-5-carboxamide] | 8800 |
| C[C@H](Nc1ncc(C(=O)N2CCN3CCC[C@@H]3C2)cn1)c1cnccn1 [Example 114] | 20.9 |
| C[C@@H](Nc1ncc(C(=O)N2CCC3(CCOCC3)C2)cn1)c1ccnnc1 [Example 154] | 337 |
| CN1CC2(CCN(C(=O)c3cnc(NCc4cnccn4)nc3)C2)C1 [Example 119] | 1370 |
| O=C(c1cnc(NCc2cccnc2)nc1)N1CCOCC(O)C1 (centres unmarked) [Example 20] | 453 |
| CC1(O)CCCN(C(=O)c2cnc(NCc3cccnc3)nc2)C1 (centres unmarked) [Example 26] | 1230 |
| CC(C)(Nc1ncc(C(=O)N2CC3(CCOCC3)C2)cn1)c1cncnc1 [Example 144] | 0.743 |
| C[C@@H]1CN(C(=O)c2cnc(NC3(c4cncnc4)CC3)nc2)CCO1 [Example 99] | 591 |
| O=C(c1cnc(NCc2cccnc2)nc1)N1CCC(C(F)(F)F)C1 (centres unmarked) [Example 7] | 17.9 |
| O=C(c1cnc(NC2(c3cncnc3)CC2)nc1)N1CCCC(F)C1 (centres unmarked) [Example 93] | 40.5 |
| Cc1ncc(C(C)Nc2ncc(C(=O)N3CCC4(CCOCC4)C3)cn2)cn1 (centres unmarked) [Example 159] | 1.29 |
| O=C(c1cnc(NCc2cncnc2C(F)(F)F)nc1)N1CC2(CCOCC2)C1 [Example 167] | 57.7 |
| O=C(c1cnc(NC2(c3cncnc3)CC2)nc1)N1CCC(F)CC1 [Example 68] | 8.13 |
| N#CC1CCCN(C(=O)c2cnc(NC3(c4cncnc4)CC3)nc2)C1 (single isomer, unassigned) [Example 197] | 5.22 |
| CCN1CCC2(CCN(C(=O)c3cnc(N[C@@H](C)c4cnccn4)nc3)C2)C1 (some centres unmarked) [Example 117] | 5.11 |
| C[C@@H]1CN(C(=O)c2cnc(NC3(c4cncnc4)CC3)nc2)C[C@H](C)O1 [Example 67] | 4240 |
| C[C@@H]1CN(C(=O)c2cnc(NC3(c4cncnc4)CC3)nc2)[C@H](C)CO1 [Example 58] | 116 |
| CCC1(CO)CCN(C(=O)c2cnc(NC3(c4cncnc4)CC3)nc2)CC1 [Example 95] | 30.1 |
| C[C@H]1COCCN1C(=O)c1cnc(NC2(c3cncnc3)CC2)nc1 [Example 55] | 2520 |

| SMILES | IC50 [nM] |
| --- | --- |
| C[C@H](Nc1ncc(C(=O)N2CCC3(CCOCC3)C2)cn1)c1ccnnc1 [Example 153] | 4.29 |
| O=C(c1cnc(NC2(c3cncnc3)CC2)nc1)N1CCCC[C@@H]1CO [Example 82] | 147 |
| O=C(c1cnc(NC2(c3cncnc3)CC2)nc1)N1CCCC(C(F)(F)F)C1 (centres unmarked) [Example 74] | 3.62 |
| C[C@H]1CN(C(=O)c2cnc(NCc3cccnc3)nc2)C[C@@H]1CO [Example 6] | 17.9 |
| O=C(c1cnc(NC2(c3cncnc3)CC2)nc1)N1C[C@H]2CC[C@@H](C1)O2 [Example 33] | 108 |
| O=C(c1cnc(NC2(c3cncnc3)CC2)nc1)N1C[C@H](O)C[C@H](C2CC2)C1 [Example 88] | 28.7 |
| O=C(c1cnc(NC2(c3cncnc3)CC2)nc1)N1CCC(C(O)C(F)(F)F)CC1 (centres unmarked) [Example 60] | 2850 |
| CC1(CO)CCN(C(=O)c2cnc(NCc3cccnc3)nc2)CC1 [Example 15] | 220 |
| O=C(c1cnc(NC2(c3cncnc3)CC2)nc1)N1CCC(c2cc[nH]n2)C1 (centres unmarked) [Example 43] | 1.35 |
| O=C(c1cnc(NCc2cnccn2)nc1)N1CCN2CCC[C@@H]2C1 [Example 128] | 384 |
| N#CC1CCCN(C(=O)c2cnc(NC3(c4cncnc4)CC3)nc2)C1 (centres unmarked) [Example 195] | 10.7 |
| COCC1CCCN(C(=O)c2cnc(NC3(c4cncnc4)CC3)nc2)C1 (centres unmarked) [Example 71] | 5.41 |
| O=C(c1cnc(NCc2cccnc2)nc1)N1C[C@H]2CCC[C@@H](O)[C@H]2C1 (relative stereo) [Example 3] | 1.69 |
| CC1CCCN(C(=O)c2cnc(NC3(c4cncnc4)CC3)nc2)C1 (centres unmarked) [Example 39] | 9.44 |
| O=C(c1cnc(NCc2cccnc2)nc1)N1CCCC2(COC2)C1 [Example 31] | 3090 |
| O=C(c1cnc(NCc2cccnc2)nc1)N1CCC(O)CC1 [Example 21] | 528 |
| N#CCC1CCCCN1C(=O)c1cnc(NCc2cccnc2)nc1 (centres unmarked) [Example 14] | 156 |
| CC1CC2(CCN(C(=O)c3cnc(NC4(c5cncnc5)CC4)nc3)C2)CC(C)O1 (centres unmarked) [Example 54] | 0.283 |
| Cc1ccc(C(C)Nc2ncc(C(=O)N3CC4(CCOCC4)C3)cn2)cn1 (centres unmarked) [Example 163] | 1.77 |
| O=C(c1cnc(NC2(c3cncnc3)CC2)nc1)N1CC2CCC1CO2 (centres unmarked) [Example 105] | 36 |

Source: patent publication US10906888B2, “Pyrimidine carboxamides as inhibitors of Vanin-1 enzyme” (Pfizer Inc., priority 2016, dated 2021)
